Laboratory results taken from patent US12685735B2 (Foghorn Therapeutics Inc., priority 2020, dated 2026).

What was measured:
BRG-1 = BRG-1 (Homo sapiens, UniProt P51532); assay: ATPase catalytic activity assay of BRG-1 (ADP-Glo); assay type: biochemical; conditions: ATPase catalytic activity, ADP-Glo; for IC50: read-out: BRG1 IC50 (μM)*; for Emax: read-out: BRG1 Max % Inhibition
Procedure, shortened: (§1)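 ADP formed by the ATPase reaction was quantified by ADP-Glo luminescence. After the reaction, unconsumed ATP was depleted (40 min, room temperature), then ADP was converted to ATP for luciferase detection (60 min, room temperature) before reading on a luminometer.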

BRM = BRM (Homo sapiens, UniProt P51531); assay: ATPase catalytic activity assay of BRM (ADP-Glo); assay type: biochemical; conditions: for IC50: read-out: BRM IC50 (μM)*
Procedure, shortened: as §1

Sequence of BRG-1 (P51532 whole entry): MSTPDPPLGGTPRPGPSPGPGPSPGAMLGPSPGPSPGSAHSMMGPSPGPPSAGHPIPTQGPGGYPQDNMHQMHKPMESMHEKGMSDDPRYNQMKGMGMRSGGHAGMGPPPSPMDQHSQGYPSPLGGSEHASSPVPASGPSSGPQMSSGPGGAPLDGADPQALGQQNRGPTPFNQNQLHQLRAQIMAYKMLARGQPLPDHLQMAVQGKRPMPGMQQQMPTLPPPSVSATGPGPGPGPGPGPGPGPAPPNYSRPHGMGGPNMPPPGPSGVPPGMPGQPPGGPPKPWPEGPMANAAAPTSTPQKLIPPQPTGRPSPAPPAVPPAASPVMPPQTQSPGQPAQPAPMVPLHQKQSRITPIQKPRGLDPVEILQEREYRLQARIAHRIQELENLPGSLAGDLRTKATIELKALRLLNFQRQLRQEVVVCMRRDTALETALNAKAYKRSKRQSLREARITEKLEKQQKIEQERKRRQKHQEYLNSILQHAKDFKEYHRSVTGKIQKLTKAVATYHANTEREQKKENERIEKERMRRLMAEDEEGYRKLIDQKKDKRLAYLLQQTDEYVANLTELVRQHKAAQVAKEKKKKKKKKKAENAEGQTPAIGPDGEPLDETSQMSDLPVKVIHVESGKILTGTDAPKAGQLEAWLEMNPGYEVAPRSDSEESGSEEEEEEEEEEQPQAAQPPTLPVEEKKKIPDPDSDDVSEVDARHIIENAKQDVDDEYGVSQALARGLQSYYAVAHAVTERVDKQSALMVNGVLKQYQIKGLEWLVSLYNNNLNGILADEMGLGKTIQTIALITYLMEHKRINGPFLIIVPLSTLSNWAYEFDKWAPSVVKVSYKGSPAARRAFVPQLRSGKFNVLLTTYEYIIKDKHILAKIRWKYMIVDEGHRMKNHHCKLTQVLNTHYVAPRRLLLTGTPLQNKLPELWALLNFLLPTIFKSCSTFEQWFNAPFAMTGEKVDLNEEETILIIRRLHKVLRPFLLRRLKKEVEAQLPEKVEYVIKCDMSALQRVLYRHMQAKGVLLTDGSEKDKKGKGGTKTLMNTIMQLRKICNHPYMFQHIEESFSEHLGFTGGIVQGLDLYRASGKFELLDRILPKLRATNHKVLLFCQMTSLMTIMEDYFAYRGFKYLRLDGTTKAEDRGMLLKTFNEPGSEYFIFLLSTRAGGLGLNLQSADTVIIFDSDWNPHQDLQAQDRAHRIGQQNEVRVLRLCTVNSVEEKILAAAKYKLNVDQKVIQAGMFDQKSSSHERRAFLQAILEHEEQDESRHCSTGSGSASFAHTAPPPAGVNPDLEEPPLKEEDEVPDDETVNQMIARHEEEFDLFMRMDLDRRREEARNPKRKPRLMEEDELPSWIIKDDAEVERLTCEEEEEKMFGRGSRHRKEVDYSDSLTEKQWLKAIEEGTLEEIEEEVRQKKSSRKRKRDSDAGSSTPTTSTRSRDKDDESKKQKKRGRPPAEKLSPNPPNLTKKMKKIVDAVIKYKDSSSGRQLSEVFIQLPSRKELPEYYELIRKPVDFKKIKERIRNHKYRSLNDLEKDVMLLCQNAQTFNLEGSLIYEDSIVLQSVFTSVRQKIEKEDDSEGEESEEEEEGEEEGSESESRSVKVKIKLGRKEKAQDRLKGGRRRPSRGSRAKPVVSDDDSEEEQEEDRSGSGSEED
Sequence of BRM (P51531 whole entry): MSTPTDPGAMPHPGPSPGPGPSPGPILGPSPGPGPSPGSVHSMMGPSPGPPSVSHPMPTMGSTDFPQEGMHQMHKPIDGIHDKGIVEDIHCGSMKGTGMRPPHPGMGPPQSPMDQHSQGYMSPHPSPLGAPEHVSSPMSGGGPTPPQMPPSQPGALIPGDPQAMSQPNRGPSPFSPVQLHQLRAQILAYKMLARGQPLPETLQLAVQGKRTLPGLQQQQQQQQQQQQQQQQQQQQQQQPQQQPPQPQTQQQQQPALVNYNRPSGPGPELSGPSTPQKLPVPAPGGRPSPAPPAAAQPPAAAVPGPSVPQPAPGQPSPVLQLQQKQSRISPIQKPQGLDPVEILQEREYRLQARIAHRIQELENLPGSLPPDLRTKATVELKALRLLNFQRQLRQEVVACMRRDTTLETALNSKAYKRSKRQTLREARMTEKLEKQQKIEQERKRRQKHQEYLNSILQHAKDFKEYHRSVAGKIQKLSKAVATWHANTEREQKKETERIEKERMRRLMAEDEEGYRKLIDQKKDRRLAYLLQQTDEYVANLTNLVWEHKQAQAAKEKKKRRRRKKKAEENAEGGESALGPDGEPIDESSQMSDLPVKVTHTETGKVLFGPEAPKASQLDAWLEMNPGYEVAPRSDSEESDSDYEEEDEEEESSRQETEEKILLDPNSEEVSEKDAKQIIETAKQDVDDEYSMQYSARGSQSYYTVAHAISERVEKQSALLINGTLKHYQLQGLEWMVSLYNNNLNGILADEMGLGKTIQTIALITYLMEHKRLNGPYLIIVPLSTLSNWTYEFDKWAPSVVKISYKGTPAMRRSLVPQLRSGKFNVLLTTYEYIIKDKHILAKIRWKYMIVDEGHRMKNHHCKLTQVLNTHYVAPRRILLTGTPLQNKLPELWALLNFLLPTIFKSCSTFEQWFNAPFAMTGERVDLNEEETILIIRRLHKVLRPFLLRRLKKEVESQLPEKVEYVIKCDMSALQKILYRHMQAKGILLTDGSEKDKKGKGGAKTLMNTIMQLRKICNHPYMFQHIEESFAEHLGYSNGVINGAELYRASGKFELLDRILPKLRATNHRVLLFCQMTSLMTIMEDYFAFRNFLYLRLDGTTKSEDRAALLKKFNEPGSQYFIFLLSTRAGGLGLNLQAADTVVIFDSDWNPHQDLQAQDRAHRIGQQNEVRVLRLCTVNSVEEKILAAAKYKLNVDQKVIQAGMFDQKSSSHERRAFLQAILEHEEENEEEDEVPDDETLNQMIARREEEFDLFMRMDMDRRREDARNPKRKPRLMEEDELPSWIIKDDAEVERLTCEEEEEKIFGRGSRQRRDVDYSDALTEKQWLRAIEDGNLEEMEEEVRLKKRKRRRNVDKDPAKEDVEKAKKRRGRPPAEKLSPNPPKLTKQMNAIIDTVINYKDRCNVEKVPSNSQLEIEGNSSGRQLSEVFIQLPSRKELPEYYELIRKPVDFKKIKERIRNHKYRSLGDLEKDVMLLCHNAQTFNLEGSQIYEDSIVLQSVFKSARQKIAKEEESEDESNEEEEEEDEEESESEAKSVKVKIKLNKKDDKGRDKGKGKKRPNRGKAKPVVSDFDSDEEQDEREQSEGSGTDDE

Row | Compound | IC50 (BRG-1) | Emax (BRG-1) | BRM Max % Inhibition (BRM) | IC50 (BRM)
1 | C[C@@]1(C#N)COCc2ccc(C(=O)NCC(=O)Nc3nc(-c4cccc([C@H]5CC5(F)F)n4)cs3)cc21 [Compound 387, (R)-4-cyano-N-(2-((4-(6-((R)-2,2-difluorocyclopropyl)pyridin-2-yl)thiazol-2-yl)amino)-2-oxoethyl)-4-methylisochromane-6-carboxamide] | 1 to 5 µM | > 95% | >95% | < 0.1 µM
2 | C[C@@]1(C#N)COCc2ccc(C(=O)NCC(=O)Nc3nc(-c4cccc([C@@H]5CC5(F)F)c4)cs3)cc21 [Compound 388, (R)-4-cyano-N-(2-((4-(3-((S)-2,2-difluorocyclopropyl)phenyl)thiazol-2-yl)amino)-2-oxoethyl)-4-methylisochromane-6-carboxamide] | < 0.1 µM | > 95% | >95% | < 0.1 µM
3 | COC1CN(c2cccc(-c3csc(NC(=O)CNC(=O)c4ccc5c(c4)[C@](C)(C#N)COC5)n3)c2)C1 [Compound 390, (R)-4-cyano-N-(2-((4-(3-(3-methoxyazetidin-1-yl)phenyl)thiazol-2-yl)amino)-2-oxoethyl)-4-methylisochromane-6-carboxamide] | < 0.1 µM | > 95% | >95% | < 0.1 µM
4 | C[C@@]1(C#N)COCc2ccc(C(=O)NCC(=O)Nc3nc(-c4cccc([C@H]5CC5(F)F)c4)cs3)cc21 [Compound 391, (R)-4-cyano-N-(2-((4-(3-((R)-2,2-difluorocyclopropyl)phenyl)thiazol-2-yl)amino)-2-oxoethyl)-4-methylisochromane-6-carboxamide] | 0.1 to 1 µM | > 95% | >95% | < 0.1 µM
5 | C[C@@H]1CN(c2cccc(-c3csc(NC(=O)CNC(=O)c4cccc([C@]5(C)C[C@@H](O)C5)c4)n3)c2)C[C@H](C)O1 [Compound 392, N-(2-((4-(3-((cis)-2,6-dimethylmorpholino)phenyl)thiazol-2-yl)amino)-2-oxoethyl)-3-((1r,3r)-3-hydroxy-1-methylcyclobutyl)benzamide] | > 5 µM | > 90% | >90% | 0.1 to 1 µM
6 | C[C@@H]1CN(c2cccc(-c3csc(NC(=O)CNC(=O)c4cccc([C@]5(C)C[C@H](O)C5)c4)n3)c2)C[C@H](C)O1 [Compound 393, N-(2-((4-(3-((cis)-2,6-dimethylmorpholino)phenyl)thiazol-2-yl)amino)-2-oxoethyl)-3-((1s,3s)-3-hydroxy-1-methylcyclobutyl)benzamide] | > 5 µM | > 95% | >95% | 0.1 to 1 µM
7 | COc1cccc(-c2csc(NC(=O)CNC(=O)c3ccc4c(c3)[C@](C)(C#N)COC4)n2)n1 [Compound 397, (R)-4-cyano-N-(2-((4-(6-methoxypyridin-2-yl)thiazol-2-yl)amino)-2-oxoethyl)-4-methylisochromane-6-carboxamide] | 0.1 to 1 µM | > 95% | >95% | < 0.1 µM
8 | C[C@@]1(C#N)COCc2ccc(C(=O)NCC(=O)Nc3nc(-c4cccc(C(F)F)c4)cs3)cc21 [Compound 398, (R)-4-cyano-N-(2-((4-(3-(difluoromethyl)phenyl)thiazol-2-yl)amino)-2-oxoethyl)-4-methylisochromane-6-carboxamide] | 0.1 to 1 µM | > 95% | >95% | < 0.1 µM
9 | COc1cc(-c2csc(NC(=O)CNC(=O)c3ccc4c(c3)[C@](C)(C#N)COC4)n2)ccc1F [Compound 399, (R)-4-cyano-N-(2-((4-(4-fluoro-3-methoxyphenyl)thiazol-2-yl)amino)-2-oxoethyl)-4-methylisochromane-6-carboxamide] | 0.1 to 1 µM | > 95% | >95% | < 0.1 µM
10 | COc1cc(-c2csc(NC(=O)CNC(=O)c3ccc4c(c3)[C@](C)(C#N)COC4)n2)ccn1 [Compound 400, (R)-4-cyano-N-(2-((4-(2-methoxypyridin-4-yl)thiazol-2-yl)amino)-2-oxoethyl)-4-methylisochromane-6-carboxamide] | 0.1 to 1 µM | > 95% | >95% | < 0.1 µM
11 | C[C@@H]1CN(c2cccc(-c3csc(NC(=O)CNC(=O)c4cccc([C@]5(C)COC[C@H]5O)c4)n3)n2)C[C@H](C)O1 [Compound 408] | 1 to 5 µM | > 90% | >90% | 0.1 to 1 µM
12 | C[C@@H]1CN(c2cccc(-c3csc(NC(=O)CNC(=O)c4ccc5c(c4)[C@](C)(F)COC5)n3)n2)C[C@H](C)O1 [Compound 409, (S)-N-(2-((4-(6-((cis)-2,6-dimethylmorpholino)pyridin-2-yl)thiazol-2-yl)amino)-2-oxoethyl)-4-fluoro-4-methylisochromane-6-carboxamide] | < 0.1 µM | > 95% | >95% | < 0.1 µM
13 | C[C@@H]1CN(c2cccc(-c3csc(NC(=O)CNC(=O)c4ccc5c(c4)[C@@]4(COC5)CC4(F)F)n3)n2)C[C@H](C)O1 [Compound 410, (R)-N-(2-((4-(6-((cis)-2,6-dimethylmorpholino)pyridin-2-yl)thiazol-2-yl)amino)-2-oxoethyl)-2,2-difluorospiro[cyclopropane-1,4′-isochromane]-6′-carboxamide] | 1 to 5 µM | > 95% | >95% | < 0.1 µM
14 | C[C@@H]1CN(c2cccc(-c3csc(NC(=O)CNC(=O)c4ccc5c(c4)[C@]4(COC5)CC4(F)F)n3)n2)C[C@H](C)O1 [Compound 411, (S)-N-(2-((4-(6-((cis)-2,6-dimethylmorpholino)pyridin-2-yl)thiazol-2-yl)amino)-2-oxoethyl)-2,2-difluorospiro[cyclopropane-1,4′-isochromane]-6′-carboxamide] | > 5 µM | > 90% | >90% | 0.1 to 1 µM

Now from value to compound:

Row | IC50 (BRG-1) | Emax (BRG-1) | BRM Max % Inhibition (BRM) | IC50 (BRM) | Compound
15 | < 0.1 µM | > 95% | >95% | < 0.1 µM | Cn1ccc2ccc(-c3csc(NC(=O)CNC(=O)c4ccc5c(c4)[C@](C)(F)COC5)n3)cc2c1=O [Compound 389, (S)-4-fluoro-4-methyl-N-(2-((4-(2-methyl-1-oxo-1,2-dihydroisoquinolin-7-yl)thiazol-2-yl)amino)-2-oxoethyl)isochromane-6-carboxamide]
16 | > 5 µM | > 80% | >80% | 0.1 to 1 µM | COc1cccc(-c2csc(NC(=O)CNC(=O)c3ccc4c(c3)C(C)(C#N)CCN4C)n2)c1 (centres unmarked) [Compound 394, 4-cyano-N-(2-((4-(3-methoxyphenyl)thiazol-2-yl)amino)-2-oxoethyl)-1,4-dimethyl-1,2,3,4-tetrahydroquinoline-6-carboxamide]
17 | > 5 µM | > 80% | >80% | 0.1 to 1 µM | CC(C)N1CCOc2ccc(C(=O)NCC(=O)Nc3nc(-c4cccc(N5C[C@@H](C)O[C@@H](C)C5)n4)cs3)cc21 [Compound 395, N-(2-((4-(6-((cis)-2,6-dimethylmorpholino)pyridin-2-yl)thiazol-2-yl)amino)-2-oxoethyl)-4-isopropyl-3,4-dihydro-2H-benzo[b][1,4]oxazine-6-carboxamide]
18 | 1 to 5 µM | > 90% | >90% | 0.1 to 1 µM | C[C@@H]1CN(c2cccc(-c3csc(NC(=O)CNC(=O)c4ccc5c(c4)S(=O)(=O)CCC5)n3)c2)C[C@H](C)O1 [Compound 396, N-(2-((4-(3-((cis)-2,6-dimethylmorpholino)phenyl)thiazol-2-yl)amino)-2-oxoethyl)thiochromane-7-carboxamide 1,1-dioxide]
19 | 0.1 to 1 µM | > 95% | >95% | < 0.1 µM | COc1cccc(-c2csc(NC(=O)CNC(=O)c3ccc4c(c3)[C@](C)(C#N)COC4)n2)c1 [Compound 401, (R)-4-cyano-N-(2-((4-(3-methoxyphenyl)thiazol-2-yl)amino)-2-oxoethyl)-4-methylisochromane-6-carboxamide]
20 | < 0.1 µM | > 95% | >95% | < 0.1 µM | COc1cccc(-c2csc(NC(=O)CNC(=O)c3ccc4c(c3)[C@](C)(C#N)COC4)n2)c1F [Compound 402, (R)-4-cyano-N-(2-((4-(2-fluoro-3-methoxyphenyl)thiazol-2-yl)amino)-2-oxoethyl)-4-methylisochromane-6-carboxamide]
21 | 1 to 5 µM | > 90% | >90% | 0.1 to 1 µM | C[C@@H]1CN(c2cccc(-c3csc(NC(=O)CNC(=O)c4ccc5c(c4)[C@](C)(CO)CN5C)n3)c2)C[C@H](C)O1 [Compound 403, (S)-N-(2-((4-(3-((cis)-2,6-dimethylmorpholino)phenyl)thiazol-2-yl)amino)-2-oxoethyl)-3-(hydroxymethyl)-1,3-dimethylindoline-5-carboxamide]
22 | > 5 µM | > 80% | >80% | 0.1 to 1 µM | C[C@@H]1CN(c2cccc(-c3csc(NC(=O)CNC(=O)c4ccc5c(c4)[C@@](C)(CO)CN5C)n3)c2)C[C@H](C)O1 [Compound 404, (R)-N-(2-((4-(3-((cis)-2,6-dimethylmorpholino)phenyl)thiazol-2-yl)amino)-2-oxoethyl)-3-(hydroxymethyl)-1,3-dimethylindoline-5-carboxamide]
23 | 0.1 to 1 µM | > 95% | >95% | < 0.1 µM | C[C@@H]1CN(c2cccc(-c3csc(NC(=O)CNC(=O)c4ccc5c(c4)C4(CC4)COC5)n3)n2)C[C@H](C)O1 [Compound 406, N-(2-((4-(6-((cis)-2,6-dimethylmorpholino)pyridin-2-yl)thiazol-2-yl)amino)-2-oxoethyl)spiro[cyclopropane-1,4′-isochromane]-6′-carboxamide]
